Test results: US5266328A, “Laminin a chain polypeptides from the carboxy terminal globular domain” (Regents of the University of Minnesota, priority 1990, dated 1993)

Tests used:
[1] = tested on: human colon (KM12 C) cells; assay: Inhibition of cell adhesion to laminin-coated surfaces; assay type: cell-based; details: soluble peptide 10 μg/ml, surface coated with 1.5 μg of laminin
Description: (§1) The murine melanoma K-1735-C10 (low metastatic) and K-1735-M4 (high metastatic) cell lines, murine UV-2237-MM fibrosarcoma cell line, human renal carcinoma SN12 C (low metastatic) and SN12 PM-6 (high metastatic) cell lines, and human colon carcinoma KM12 C (low metastatic) and KM12 SM (high metastatic) cell lines were originally provided by Dr. I. J. Fidler (M.D., Anderson Hospital, University of Texas Health Sciences Center, Houston, Tex.). The human fibrosarcoma HT-1080 cell line was obtained from the ATCC. The MM fibrosarcoma cell line was maintained in DME (GIBCO Laboratories, Grand Island, N.Y.) containing 10% FBS, the murine melanomas were maintained in DMEM containing 10% calf serum, the human fibrosarcoma cells were maintained in EMEM containing 10% heat inactivated FBS, and the human renal and colon carcinoma cells were grown in EME containing 10% FBS, vitamins, and 1 mM sodium pyruvate. Cells were passaged for 4 to 5 weeks and then replaced from frozen stocks of early passage cells to minimize phenotypic drift. Cells were maintained at 37° C. in a humidified incubator containing 5% CO2.
(§2) Inhibition of cell adhesion with synthetic peptides was performed using assays similar to those described by Skubitz et al., supra (1987). Briefly, radiolabeled cells at 5×10^4 /ml were incubated for 30 minutes with various concentrations of synthetic peptides (1.0 μg/ml-200 μg/ml) in DME/Hepes containing 2 mg/ml BSA. One hundred microliters of the cell suspension was then added to wells precoated with 1.5 μg of laminin, 1.0 μg of type IV collagen, or 1.0 μg of fibronectin. The cells were incubated for 30 minutes at 37° C., then the wells were washed and adherent cells were quantitated as previously described [Skubitz et al., supra (1987)]. Cell viability after a one hour incubation in the presence of the "inhibitors" was assessed by trypan blue dye exclusion.

[2] = tested on: murine fibrosarcoma (MM) cells; assay: as above; assay type: cell-based; details: soluble peptide 10 μg/ml, surface coated with 1.5 μg of laminin
Description: as §1, §2

[3] = tested on: murine melanoma (M4) cells; assay: as above; assay type: cell-based; details: soluble peptide 10 μg/ml, surface coated with 1.5 μg of laminin
Description: as §1, §2

[4] = tested on: human renal (SN12 PM6) cells; assay: as above; assay type: cell-based; details: soluble peptide 10 μg/ml, surface coated with 1.5 μg of laminin
Description: as §1, §2

[5] = tested on: human fibrosarcoma (HT1080) cells; assay: as above; assay type: cell-based; details: soluble peptide 20 μg/ml, surface coated with 1.5 μg of laminin
Description: as §1, §2

[6] = tested on: murine melanoma (C10) cells; assay: as above; assay type: cell-based; details: soluble peptide 10 μg/ml, surface coated with 1.5 μg of laminin
Description: as §1, §2

[7] = tested on: human renal (SN12C) cells; assay: as above; assay type: cell-based; details: soluble peptide 10 μg/ml, surface coated with 1.5 μg of laminin
Description: as §1, §2

[8] = Solid-phase binding of 3H-heparin to peptides adsorbed to plastic plates (RLBA)
Procedure: The binding of ^3 H-heparin to laminin A chain peptides was measured in a direct solid phase binding assay as described below, whereby various amounts of the peptides were adsorbed to plates and ^3 H-heparin was added to each well. More specifically, the binding of ^3 H-heparin (0.3 mCi/mg; Du Pont - New England Nuclear Research Products, Wilmington, Del.) to laminin, synthetic peptides, and bovine serum albumin (BSA) (fatty acid free, fraction V, ICN Immunobiologicals) was quantititated by a solid-phase RLBA in 96-well polystyrene Immulon 1 plates (Dynatech Laboratories, Inc., Alexandria, Va.) as described by Skubitz et al., supra (1988). Specifically, 50 microliters of the various proteins at various concentrations (0.2 μg/well-5.0 μg/well) in PBS containing 0.02% NaN3 was added to each well and dried overnight at 29° C. The next day, 200 μl of 2 mg/ml BSA in PBS was added to each well, followed by a 2 hour incubation at 37° C. After removal of this buffer, 50 μl of ^3 H-heparin (200,000 dpm) was added in RLBA buffer (20 mM Tris, pH 6.8 containing 50 mM NaCl and 2 mg/ml ovalbumin) and the wells were incubated at 37° C. for 2 hours. Unbound ^3 H-heparin was removed by washing three times with wash buffer (RLBA buffer containing 0.1% CHAPS). Tritiated heparin was solubilized by incubation with 200 μl of 0.05N NaOH and 1% SDS for 30 minutes at 60° C. and quantitated in a Beckman LS-3801 scintillation counter.
The above experimental procedure was repeated to determine the percentage of ^3 H-heparin that would adhere to 2 μg/well of each polypeptide after a two-hour incubation in increasing concentrations of salt (NaCl).

[9] = tested on: eight different cell lines of murine or human origin; assay: Direct cell adhesion, summary over eight tumor cell lines; assay type: cell-based; details: summary of Table IV over eight cell lines
Description: (§3) The murine melanoma K-1735-C10 (low metastatic) and K-1735-M4 (high metastatic) cell lines, murine UV-2237-MM fibrosarcoma cell line, human renal carcinoma SN12 C (low metastatic) and SN12 PM-6 (high metastatic) cell lines, and human colon carcinoma KM12 C (low metastatic) and KM12 SM (high metastatic) cell lines were originally provided by Dr. I. J. Fidler (M.D., Anderson Hospital, University of Texas Health Sciences Center, Houston, Tex.). The human fibrosarcoma HT-1080 cell line was obtained from the ATCC. […]
(§4) The direct adhesion of cells to protein or peptide coated surfaces was performed as described in Skubitz et al., Exp. Cell Res., 173, 349-360 (1987) and Charonis et al., supra (1988). […] Adherent cells were solubilized and quantitated in a scintillation counter. […] The solubilized cells were then quantitated using a liquid scintillation counter.
(§5) Instead of attempting to characterize the cell binding activity of all 14 of the synthetic peptides, a number of peptides from each of the three heparin binding categories of peptides were evaluated. […]

[10] = tested on: human fibrosarcoma HT-1080 cell line; assay: Direct cell adhesion to peptide-coated surfaces; assay type: cell-based; details: surface coated with 1 μg; human fibrosarcoma (HT1080)
Description: as §3, §4, §5
Radiolabeled HT-1080 human fibrosarcoma cells were incubated in the wells for 30 minutes and the adhesion of cells was quantitated.

[11] = tested on: murine fibrosarcoma (MM) cells; assay: Cell spreading assay; assay type: cell-based; details: wells coated at 100 μg/ml, 2 1/2 hour incubation
Procedure: (§6) Spreading of the adherent cells was evaluated by performing adhesion assays similar to those described above. Twenty-four well tissue culture plates (Becton Dickinson and Co., Lincoln Park, N.J.) were coated with 300 μl of laminin, synthetic peptides, or BSA at 100 μg/ml, then blocked with 2 mg/ml BSA in PBS. Three hundred microliters of a cell suspension at 5×10^4 cells/ml was added to each well, and after a 21/2 hour incubation, nonadherent cells were aspirated out of the wells. Adherent cells were fixed with 2% glutaraldehyde in PBS at 23° C. for one hour. The glutaraldehyde was then removed and the cells were stained by two different techniques. For photographic purposes, the cells were stained with Diff-Quik Solution I (American Scientific Products, McGaw Park, Ill.) for 10 minutes at 23° C. Solution I was removed, then Diff-Quik Solution II was added and the cells were stained for another 10 minutes at 23° C. Wells were washed with PBS, then representative cells were photographed with a Nikon DIAPHOT inverted phase microscope using Panatomic X Film ASA32 (Eastman Kodak, Rochester, N.Y.). Adherent cells to be quantitated for spreading were stained overnight at 23° C. with 500 μl of a solution containing 0.12% (w/v) Coomassie Brilliant Blue R (Sigma Chemical Co.), 5% (v/v) acetic acid, and 50% (v/v) ethanol. Wells were washed three times with 500 μl of PBS and cell spreading was then quantitated by measuring the average surface area occupied by a cell using an Opti-Max Image Analyzer. Thirty cells were measured per well; each experiment was done in quadruplicate and repeated three times. In all cases, the cells spread on the peptides to occupy an area about 60% of that seen on laminin-coated surfaces.

[12] = tested on: HT-1080 human fibrosarcoma cells; assay: Cell spreading assay; assay type: cell-based; details: for Surface Area Occuppied by a Cell / Surface Area Occupied by a Cell: wells coated at 100 μg/ml, 2 1/2 hour incubation; for Surface Area Occuppied by a Cell: HT-1080, Table VII; for Surface Area Occupied by a Cell: human fibrosarcoma (HT1080), Table VI
Procedure: as §6

[13] = tested on: human renal (SN12 PM6) cells; assay: Cell spreading assay; assay type: cell-based; details: wells coated at 100 μg/ml, 2 1/2 hour incubation
Procedure: as §6

[14] = tested on: human renal (SN12C) cells; assay: Cell spreading assay; assay type: cell-based; details: wells coated at 100 μg/ml, 2 1/2 hour incubation
Procedure: as §6

[15] = tested on: murine UV-2237-MM fibrosarcoma cell line; assay: Direct cell adhesion to peptide-coated surfaces; assay type: cell-based; details: surface coated with 1 μg
Description: as §1
(§7) The direct adhesion of cells to protein or peptide coated surfaces was performed as described in Skubitz et al., Exp. Cell Res., 173, 349-360 (1987) and Charonis et al., supra (1988). Briefly, radiolabeled cells were added to 96-well microtiter plates coated with various concentrations of synthetic peptides, laminin, or BSA (0.02 μg/well-50 μg/well from 50 μl solutions) for various lengths of time. After the incubation period, loosely or nonadherent cells were removed by washing the wells three times. Adherent cells were solubilized and quantitated in a scintillation counter. More specifically, cultures of cells which were 60-80% confluent were metabolically labeled for 24 hours with the addition of 3 μCi/ml of ^3 H-td (tritiated thymidine). On the day of the assay, the cells were harvested by trypsinization, the trypsin was inhibited by the addition of serum, and the cells were washed free of this mixture and resuspended in DMEM buffered with HEPES at pH 7.2. The adhesion medium also contained 2 mg/ml BSA. The cells were adjusted to a concentration of 3-4×10^4 /ml, and 100 μl of this cell suspension was added to the wells. The assay mixture was then incubated at 37° C. for 120 minutes. At the end of the incubation, the wells were washed with warm DMEM/Hepes containing 2 mg/ml BSA, and the adherent population was solubilized with 0.5N NaOH contained 1% SDS. The solubilized cells were then quantitated using a liquid scintillation counter.
(§8) Instead of attempting to characterize the cell binding activity of all 14 of the synthetic peptides, a number of peptides from each of the three heparin binding categories of peptides were evaluated. Microtiter wells were adsorbed with the peptides, laminin, or BSA and a variety of tumor cell lines were tested for the ability to adhere to the ligands. The eight different cell lines selected for this study were of murine or human origin and, in most cases, of either high or low metastatic capacity. […] Many of the peptides that were very good at binding heparin and cells were also capable of inhibiting the adhesion of various cells to surfaces coated with laminin (see below).

[16] = tested on: human colon carcinoma KM12 SM (high metastatic) cell line; assay: Direct cell adhesion to peptide-coated surfaces; assay type: cell-based; details: surface coated with 1 μg
Description: as §1, §7, §8

[17] = tested on: human colon carcinoma KM12 C (low metastatic) cell line; assay: Direct cell adhesion to peptide-coated surfaces; assay type: cell-based; details: surface coated with 1 μg
Description: as §1, §7, §8

[18] = tested on: human renal carcinoma SN12 C (low metastatic) cell line; assay: Direct cell adhesion to peptide-coated surfaces; assay type: cell-based; details: surface coated with 1 μg; human renal (SN12C)
Description: as §1, §7, §8

[19] = tested on: murine melanoma K-1735-C10 (low metastatic) cell line; assay: Direct cell adhesion to peptide-coated surfaces; assay type: cell-based; details: surface coated with 1 μg
Description: as §1, §7, §8

[20] = tested on: human renal carcinoma SN12 PM-6 (high metastatic) cell line; assay: Direct cell adhesion to peptide-coated surfaces; assay type: cell-based; details: surface coated with 1 μg; human renal (SN12 PM6)
Description: as §1, §7, §8

[21] = tested on: murine melanoma K-1735-M4 (high metastatic) cell line; assay: Direct cell adhesion to peptide-coated surfaces; assay type: cell-based; details: surface coated with 1 μg
Description: as §1, §7, §8

Row | Substance | Percentage of Cells Adhered to Surface [10] [%] | Surface Area Occupied by a Cell [11] [μm^2] | Surface Area Occuppied by a Cell [12] | Surface Area Occupied by a Cell [12] [μm^2] | Surface Area Occupied by a Cell [13] [μm^2] | Surface Area Occupied by a Cell [14] [μm^2] | Percentage of Cells Adhered to Surface [15] [%] | Percentage of Cells Adhered to Surface [17] [%] | Percentage of Cells Adhered to Surface [18] [%] | Percentage of Cells Adhered to Surface [19] [%] | Percentage of Cells Adhered to Surface [20] [%] | Percentage of Cells Adhered to Surface [21] [%] | also measured
1 | KQNCLSSRASFRGCVRNLRLSR [Peptide R30, laminin A chain residues 3011-3032] | 92 | 291 ± 21 | 392 +/- 27 um2 | 392 ± 27 | 311 ± 19 | 292 ± 22 | 56 | 48 | 84 | 82 | 67 | 25 | Percentage Inhibition of Laminin-Mediated Cell Adhesion [1]: 59%; Percentage Inhibition of Laminin-Mediated Cell Adhesion [2]: 25%; Percentage Inhibition of Laminin-Mediated Cell Adhesion [3]: 38%; Percentage Inhibition of Laminin-Mediated Cell Adhesion [4]: 44%; Percentage Inhibition of Laminin-Mediated Cell Adhesion [5]: 51%; Percentage Inhibition of Laminin-Mediated Cell Adhesion [6]: 22%; Percentage Inhibition of Laminin-Mediated Cell Adhesion [7]: 0%; Heparin Binding (bound ^3 H-heparin as percent of input) ([8]; One microgram peptide adsorbed, 200,000 dpm ^3 H-heparin, 20 mM Tris pH 6.8, 50 mM NaCl, 2 mg/ml ovalbumin): **** (>10% [****]); Bound ^3 H-heparin as percent of input, 0.05M NaCl ([8]; Two micrograms peptide adsorbed, 0.02M Tris pH 6.8, 0.05M NaCl, 2 hr 37 C): **** (>10% (****)); Bound ^3 H-heparin as percent of input, 0.15M NaCl ([8]; Two micrograms peptide adsorbed, 0.02M Tris pH 6.8, 0.15M NaCl, 2 hr 37 C): **** (>10% (****)); Bound ^3 H-heparin as percent of input, 0.5M NaCl ([8]; Two micrograms peptide adsorbed, 0.02M Tris pH 6.8, 0.5M NaCl, 2 hr 37 C): *** (6.0-10.0% (***)); Bound ^3 H-heparin as percent of input, 1.0M NaCl ([8]; Two micrograms peptide adsorbed, 0.02M Tris pH 6.8, 1.0M NaCl, 2 hr 37 C): * (2.0-3.9% (*)); Heparin binding activity group ([8]; grouping of the Table II results in words): very good heparin binding; promotion of cell adhesion, in words [9]: capable of promoting the adhesion of all eight cell lines; HT-1080 cell spreading, in words ([12]; ranking of Table VII): promoted the most cell spreading; Percentage of Cells Adhered to Surface [16]: 69%
2 | Laminin: extracellular matrix glycoprotein isolated from the EHS murine tumor; positive control | 41 | 443 ± 32 | 610 +/- 62 um2 | 610 ± 62 | 550 ± 29 | 520 ± 14 | 53 | 11 | 28 | 58 | 36 | 13 | 
